This is an account of results in patent US9340590B2 (priority 2011, dated 2016).

One assay has as its target hNav1.5 (Homo sapiens, UniProt Q14524). Description: cell-based.
For a further assay, the target named is hNav1.7 (Homo sapiens, UniProt Q15858). Briefly: cell-based. Particulars: Nav1.7 Use IC50.

Positions of bridges follow the written chain, without caps; N, C: chain ends. Non-standard residues stand in square brackets, D forms with d. Residues, ends and D or L forms follow the SMILES beside them. hArg = N=C(N)NCCCC[C@H](N)C(=O)O

Sequence of hNav1.5 (Q14524 whole entry, looked up): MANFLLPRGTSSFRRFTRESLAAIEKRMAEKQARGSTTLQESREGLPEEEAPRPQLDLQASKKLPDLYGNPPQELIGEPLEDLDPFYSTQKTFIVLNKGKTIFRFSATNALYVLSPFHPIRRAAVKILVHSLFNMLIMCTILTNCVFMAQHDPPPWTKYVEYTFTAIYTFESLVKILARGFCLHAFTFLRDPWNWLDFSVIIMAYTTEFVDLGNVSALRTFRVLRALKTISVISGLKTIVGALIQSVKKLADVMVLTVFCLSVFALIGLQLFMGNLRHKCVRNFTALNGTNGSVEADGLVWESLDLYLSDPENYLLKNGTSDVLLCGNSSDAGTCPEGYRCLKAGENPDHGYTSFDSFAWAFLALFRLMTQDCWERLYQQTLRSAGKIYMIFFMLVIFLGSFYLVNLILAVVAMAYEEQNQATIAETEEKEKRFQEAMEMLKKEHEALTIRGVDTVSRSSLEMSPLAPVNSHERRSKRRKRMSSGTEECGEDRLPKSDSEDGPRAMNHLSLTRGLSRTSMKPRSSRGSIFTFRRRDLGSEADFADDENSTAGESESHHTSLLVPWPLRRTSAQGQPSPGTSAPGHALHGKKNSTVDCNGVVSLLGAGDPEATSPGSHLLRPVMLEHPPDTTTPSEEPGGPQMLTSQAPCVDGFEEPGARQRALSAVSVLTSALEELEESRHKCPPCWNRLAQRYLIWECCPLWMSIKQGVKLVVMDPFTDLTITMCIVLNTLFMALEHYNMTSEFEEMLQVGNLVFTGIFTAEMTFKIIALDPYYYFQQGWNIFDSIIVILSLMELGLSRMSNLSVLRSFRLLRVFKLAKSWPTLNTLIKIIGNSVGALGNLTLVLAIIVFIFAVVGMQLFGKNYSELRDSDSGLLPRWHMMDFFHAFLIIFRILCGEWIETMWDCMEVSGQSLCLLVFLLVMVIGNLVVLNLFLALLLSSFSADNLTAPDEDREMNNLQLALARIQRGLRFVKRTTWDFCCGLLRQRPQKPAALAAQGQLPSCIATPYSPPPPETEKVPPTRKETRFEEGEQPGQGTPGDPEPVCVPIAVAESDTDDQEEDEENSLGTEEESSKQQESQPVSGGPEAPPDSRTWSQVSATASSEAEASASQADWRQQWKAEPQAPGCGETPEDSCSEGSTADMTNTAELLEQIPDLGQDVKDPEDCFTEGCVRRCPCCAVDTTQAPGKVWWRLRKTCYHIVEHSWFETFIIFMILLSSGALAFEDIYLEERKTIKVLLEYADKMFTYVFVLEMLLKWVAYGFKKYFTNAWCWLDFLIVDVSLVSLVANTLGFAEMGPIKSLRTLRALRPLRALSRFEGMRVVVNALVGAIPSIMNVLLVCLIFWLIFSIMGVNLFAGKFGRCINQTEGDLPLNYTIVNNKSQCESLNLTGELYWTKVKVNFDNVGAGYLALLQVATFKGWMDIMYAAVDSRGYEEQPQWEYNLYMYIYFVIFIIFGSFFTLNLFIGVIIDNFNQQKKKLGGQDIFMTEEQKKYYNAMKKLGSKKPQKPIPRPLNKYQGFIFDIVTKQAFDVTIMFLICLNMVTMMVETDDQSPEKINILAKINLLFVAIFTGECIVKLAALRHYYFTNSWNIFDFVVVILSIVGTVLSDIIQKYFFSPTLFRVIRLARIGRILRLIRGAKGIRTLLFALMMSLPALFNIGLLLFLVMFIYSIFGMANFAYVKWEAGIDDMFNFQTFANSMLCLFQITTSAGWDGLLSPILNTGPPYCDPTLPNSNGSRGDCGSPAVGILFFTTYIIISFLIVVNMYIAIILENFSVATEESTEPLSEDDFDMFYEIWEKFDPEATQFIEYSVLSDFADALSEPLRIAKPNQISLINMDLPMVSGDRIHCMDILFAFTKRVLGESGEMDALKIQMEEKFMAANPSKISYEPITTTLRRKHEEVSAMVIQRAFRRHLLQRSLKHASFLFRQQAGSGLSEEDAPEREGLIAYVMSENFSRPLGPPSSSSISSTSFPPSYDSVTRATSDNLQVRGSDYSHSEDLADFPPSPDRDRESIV
Sequence of hNav1.7 (Q15858 whole entry, looked up): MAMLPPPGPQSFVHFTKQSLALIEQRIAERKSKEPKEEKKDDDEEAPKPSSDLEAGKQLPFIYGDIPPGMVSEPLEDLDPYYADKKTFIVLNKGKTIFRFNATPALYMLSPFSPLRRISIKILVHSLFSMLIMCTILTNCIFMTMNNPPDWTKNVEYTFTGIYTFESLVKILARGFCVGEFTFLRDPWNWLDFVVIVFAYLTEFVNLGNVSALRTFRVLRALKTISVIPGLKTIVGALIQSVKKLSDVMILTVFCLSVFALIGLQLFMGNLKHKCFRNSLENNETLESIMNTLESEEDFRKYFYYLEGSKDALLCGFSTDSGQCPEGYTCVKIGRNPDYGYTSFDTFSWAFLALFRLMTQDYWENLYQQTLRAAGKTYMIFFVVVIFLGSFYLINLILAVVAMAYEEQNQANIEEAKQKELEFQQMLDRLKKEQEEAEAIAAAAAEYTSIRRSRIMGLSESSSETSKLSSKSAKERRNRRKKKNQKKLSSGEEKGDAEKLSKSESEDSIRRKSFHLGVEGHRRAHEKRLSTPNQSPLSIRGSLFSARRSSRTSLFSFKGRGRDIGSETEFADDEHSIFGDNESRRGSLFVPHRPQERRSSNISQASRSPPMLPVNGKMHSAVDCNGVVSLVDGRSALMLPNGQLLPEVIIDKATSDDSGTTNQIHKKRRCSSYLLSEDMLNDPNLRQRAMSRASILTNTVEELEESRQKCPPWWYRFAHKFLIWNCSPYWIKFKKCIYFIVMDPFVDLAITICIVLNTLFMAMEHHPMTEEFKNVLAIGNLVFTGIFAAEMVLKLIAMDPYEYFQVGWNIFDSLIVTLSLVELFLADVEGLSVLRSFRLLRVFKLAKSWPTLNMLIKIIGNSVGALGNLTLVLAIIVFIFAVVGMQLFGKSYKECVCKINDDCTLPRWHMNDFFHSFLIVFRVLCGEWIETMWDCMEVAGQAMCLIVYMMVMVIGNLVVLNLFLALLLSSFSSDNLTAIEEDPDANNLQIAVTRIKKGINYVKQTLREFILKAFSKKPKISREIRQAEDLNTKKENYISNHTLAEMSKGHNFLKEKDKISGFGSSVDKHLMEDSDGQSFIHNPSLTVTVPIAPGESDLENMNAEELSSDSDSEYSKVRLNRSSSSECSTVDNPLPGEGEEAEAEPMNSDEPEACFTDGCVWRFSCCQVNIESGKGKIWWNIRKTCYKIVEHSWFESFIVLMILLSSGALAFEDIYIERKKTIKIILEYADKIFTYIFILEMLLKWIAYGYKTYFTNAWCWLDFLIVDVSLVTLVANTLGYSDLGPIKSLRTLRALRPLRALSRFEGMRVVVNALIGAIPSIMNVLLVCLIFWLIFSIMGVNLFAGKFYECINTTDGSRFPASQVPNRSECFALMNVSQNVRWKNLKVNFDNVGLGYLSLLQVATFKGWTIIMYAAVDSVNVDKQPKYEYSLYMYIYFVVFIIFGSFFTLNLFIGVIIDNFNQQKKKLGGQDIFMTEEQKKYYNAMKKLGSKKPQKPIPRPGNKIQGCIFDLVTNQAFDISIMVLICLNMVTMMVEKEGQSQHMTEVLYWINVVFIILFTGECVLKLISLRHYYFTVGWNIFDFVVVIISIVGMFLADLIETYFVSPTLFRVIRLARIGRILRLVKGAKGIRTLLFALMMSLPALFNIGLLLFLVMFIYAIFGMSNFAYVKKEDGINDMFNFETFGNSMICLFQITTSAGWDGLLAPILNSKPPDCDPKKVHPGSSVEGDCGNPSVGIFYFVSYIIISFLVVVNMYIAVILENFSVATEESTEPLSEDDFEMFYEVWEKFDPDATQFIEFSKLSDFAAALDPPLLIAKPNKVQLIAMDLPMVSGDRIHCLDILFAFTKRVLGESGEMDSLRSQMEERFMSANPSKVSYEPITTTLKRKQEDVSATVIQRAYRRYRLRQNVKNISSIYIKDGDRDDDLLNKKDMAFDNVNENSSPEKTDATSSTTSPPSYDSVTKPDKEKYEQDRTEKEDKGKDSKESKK

In the case of `CC[C@H](C)[C@@H]1NC(=O)[C@@H]2CSSC[C@@H]3NC(=O)[C@H](C(C)C)NC(=O)[C@H](CC(C)C)NC(=O)[C@H](CC(N)=O)NC(=O)[C@@H]4CCCN4C(=O)[C@H](CCCNC(=N)N)NC(=O)[C@H](CSSC[C@H](NC(=O)[C@@H](N)CC(=O)O)C(=O)N[C@@H](CC(C)C)C(=O)NCC(=O)N[C@@H](C)C(=O)N[C@@H](CCSC)C(=O)N[C@@H](CCCNC(=N)N)C(=O)N[C@@H](CCCCN)C(=O)N2)NC(=O)[C@H](CSSC[C@@H](C(=O)N[C@@H](CCCCN)C(=O)N[C@@H](Cc2ccc(O)cc2)C(=O)N[C@H](C(=O)N[C@@H](Cc2ccccc2)C(N)=O)C(C)C)NC(=O)[C@H](Cc2c[nH]c4ccccc24)NC(=O)[C@H](CCCCNC(=N)N)NC(=O)[C@H](Cc2c[nH]cn2)NC(=O)[C@H]([C@@H](C)O)NC(=O)[C@H](CCCNC(=N)N)NC(=O)[C@H](CO)NC3=O)NC(=O)[C@H](CCCCN)NC(=O)[C@H](CC(=O)O)NC(=O)[C@H](CC(N)=O)NC(=O)[C@H](CC(=O)O)NC(=O)[C@@H]2CCCN2C1=O` [[Ala5;hArg28]GpTx-1(1-34)] (H-DCLGAMRKCIPDNDKCCRPNLVCSRTH[hArg]WCKYVF-NH2; disulfide 2-17, 9-23, 16-30), the results for the half-inhibitory concentration (IC50) against hNav1.5 and against hNav1.7 were over 10000 nM and 14 nM, respectively.

For `CC[C@H](C)[C@@H]1NC(=O)[C@@H]2CSSC[C@@H]3NC(=O)[C@H](C)NC(=O)[C@H](CC(C)C)NC(=O)[C@H](CC(N)=O)NC(=O)[C@@H]4CCCN4C(=O)[C@H](CCCNC(=N)N)NC(=O)[C@H](CSSC[C@H](NC(=O)[C@@H](N)CC(=O)O)C(=O)N[C@@H](CC(C)C)C(=O)NCC(=O)N[C@@H](Cc4ccccc4)C(=O)N[C@@H](CCSC)C(=O)N[C@@H](CCCNC(=N)N)C(=O)N[C@@H](CCCCN)C(=O)N2)NC(=O)[C@H](CSSC[C@@H](C(=O)N[C@@H](CCCCN)C(=O)N[C@@H](Cc2ccc(O)cc2)C(=O)N[C@H](C(=O)N[C@@H](Cc2ccccc2)C(N)=O)C(C)C)NC(=O)[C@H](Cc2c[nH]c4ccccc24)NC(=O)[C@H](CCCCN)NC(=O)[C@H](Cc2cnc[nH]2)NC(=O)[C@H]([C@@H](C)O)NC(=O)[C@H](CCCNC(=N)N)NC(=O)[C@H](CO)NC3=O)NC(=O)[C@H](CCCCN)NC(=O)[C@H](CC(=O)O)NC(=O)[C@H](CC(N)=O)NC(=O)[C@H](CC(=O)O)NC(=O)[C@@H]2CCCN2C1=O` [[Ala22]GpTx-1(1-34)] (H-DCLGFMRKCIPDNDKCCRPNLACSRTHKWCKYVF-NH2; disulfide 2-17, 9-23, 16-30), the values for the IC50 against hNav1.5 and against hNav1.7 were 6200 nM and 6 nM, respectively.

As to `CC[C@H](C)[C@@H]1NC(=O)[C@@H]2CSSC[C@@H]3NC(=O)[C@H](C(C)C)NC(=O)[C@H](CC(C)C)NC(=O)[C@H](CC(N)=O)NC(=O)[C@@H]4CCCN4C(=O)[C@H](CCCNC(=N)N)NC(=O)[C@H](CSSC[C@H](NC(=O)[C@@H](N)CC(=O)O)C(=O)N[C@@H](CC(C)C)C(=O)NCC(=O)N[C@@H](Cc4ccccc4)C(=O)N[C@@H](CCSC)C(=O)N[C@@H](CCCNC(=N)N)C(=O)N[C@@H](CCCCN)C(=O)N2)NC(=O)[C@H](CSSC[C@@H](C(=O)N[C@@H](CCCCN)C(=O)N[C@@H](Cc2ccc(O)cc2)C(=O)N[C@H](C(=O)N[C@@H](Cc2ccccc2)C(N)=O)C(C)C)NC(=O)[C@H](Cc2c[nH]c4ccccc24)NC(=O)[C@H](CCCCN)NC(=O)[C@H](Cc2cnc[nH]2)NC(=O)[C@H]([C@@H](C)O)NC(=O)[C@H](C)NC(=O)[C@H](CO)NC3=O)NC(=O)[C@H](CCCCN)NC(=O)[C@H](CC(=O)O)NC(=O)[C@H](CC(N)=O)NC(=O)[C@H](CC(=O)O)NC(=O)[C@@H]2CCCN2C1=O` [[Ala25]GpTx-1(1-34)] (H-DCLGFMRKCIPDNDKCCRPNLVCSATHKWCKYVF-NH2; disulfide 2-17, 9-23, 16-30), the results for the concentration for half-maximal inhibition (IC50) on hNav1.5 and at hNav1.7 were 10000 nM and 12 nM, respectively.

Usually IC50 stands for the concentration that inhibits the measured activity by half.
